≈ marks a conversion by molar mass, not a printed value.
Tested on: T1, Cryptococcus neoformans (H99)
T1 construct: H99
Assay: microbe, parasite or virus in culture
Set-up: CLSI M27-A3 broth microdilution in RPMI 1640 at 37 C, growth inhibition of C. neoformans (MIC)
Settings: Cryptococcus neoformans, read-out: MIC (μg/mL) against: / Cryptococcus neoformans (H99)^a
Procedure: In vitro antifungal activities of FK506, FK520, and analogs were assessed in RPMI 1640 (Sigma-Aldrich) for all strains tested. MICs/minimum effective concentrations (MECs) for each drug were measured using modified Clinical and Laboratory Standards Institute (CLSI) M38-A2 and M27-A3 standard in vitro antifungal susceptibility protocols. Broth microdilution assays for MIC/MEC assessment were performed as described previously ([33]). All antifungal assays with C. neoformans were performed at 37°C. Antifungal susceptibility testing for C. albicans was performed in the presence of a uniform 1 μg/mL concentration of fluconazole to sensitize the organism to calcineurin inhibition. MICs/minimum effective concentrations (MECs) were determined for each of the novel analogs against the three major human fungal pathogens, A. fumigatus, C. neoformans, and C. albicans. […] Thus, analogs of FK506 and FK520 can tolerate up to 100-fold reduction in antifungal activity and still be considered for in vivo testing. For C. neoformans, MICs were the most uniform and ranged from 0.2 to 2 μg/mL, which is between 4- and 40-fold reduced for antifungal activity. C. albicans MICs ranged from 0.2 to 6.25 μg/mL, which is between 10- and 312.5-fold reduced for activity. Despite being one of the most difficult to treat fungal infections, all six analogs were active against A. fumigatus with MECs ranging from 1 to 2 μg/mL or a 62.5- to 125-fold reduction in activity.

## C=CC[C@@H]1/C=C(\C)C[C@H](C)C[C@H](OC)[C@H]2O[C@@](O)(C(=O)C(=O)N3CCCC[C@H]3C(=O)O[C@H](/C(C)=C/[C@@H]3CC[C@@H](O)[C@H](OC)C3)[C@H](C)[C@@H](O)C/C1=N/NC(C)=O)[C@H](C)C[C@@H]2OC [JH-FK-01, APX879]
  MIC: 1 µg/mL (≈ 1.16 µM)
